Here are results for one compound from patent publication US9828350B2, “5,6-dihydro-2H-[1,4]oxazin-3-yl-amine derivatives useful as inhibitors of beta-secretase (BACE)” (Janssen Pharmaceutica NV, priority 2010, dated 2017).

Like-named read-outs stand apart in the source and are kept apart here.

One series deals with Abeta 1-38. The note with it: 20 mg/kg, 24 h.
For another series, the system named is Aβ42. In words: Demonstration of in vivo efficacy, brain Aβ42 lowering (ELISA). The settings on record: mouse brain, 30 mpk, s.c., 4 h.
A further series concerns Abeta 1-40. The note with it: 20 mg/kg, 24 h.
A short description of series [1]: Single dose pharmacology in the Beagle dog, pharmacokinetic (PK) follow up. The settings on record: single dose 20 mg/kg; for concentration at 24 h: both sexes. It is filed as in vivo. As for the experimental part:
(§1) Single Dose Pharmacology in the Beagle Dog
(§2) Compound 86 was tested to evaluate the effect on the beta-amyloid profile in cerebrospinal fluid (CSF) of dogs after a single dose, in combination with pharmacokinetic (PK) follow up and limited safety evaluation. 6 Beagle dogs (3 male, 3 female) were dosed with vehicle (4 ml/kg of an aqueous suspension of 20% cyclodextrin and Tween) and 6 Beagle dogs (3 male, 3 female) were dosed with compound 86 (20 mg/kg in 2 ml/kg of an aqueous 20% cyclodextrin solution) on an empty stomach. CSF was taken in conscious animals directly from the lateral ventricle via a cannula which was screwed in the skull and covered with subcutaneous tissue and skin, before and at 4, 8 and 24 hours after dosing. 8 Hours after dosing the animals got access to their regular meal for 30 minutes. Blood was taken for PK follow up (0.5, 1, 2, 4, 8 and 24 hours) and at the time of the CSF sampling, samples for serum analysis were taken. An additional sample for serum analysis was taken 10 days after dosing. The CSF samples were used for measurement of Abeta 1-37, Abeta 1-38, Abeta 1-40 and Abeta 1-42.

A further series concerns Abeta 1-42. The note with it: 20 mg/kg, 24 h.
Series [2] deals with recombinant BACE1 protein (Homo sapiens, UniProt P56817). The series is described as follows: Biochemical FRET based assay. The settings on record: recombinant BACE1 1 μg/ml, 120 minutes at room temperature, pH 5.0; read-out: Biochemical FRET based assay pIC50 (converted). The method, boiled down: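 Recombinant BACE1 (1 μg/ml final) was incubated 120 minutes at room temperature with […] Mca/Dnp-labelled 13-mer APP Swedish-mutant peptide in 40 mM citrate pH 5.0, 0.04% PEG, 4% DMSO, with or without compound. Cleavage was measured as fluorescence (ex 320/em 405 nm), given as RFU difference between T120 and T0.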
Sequence of recombinant BACE1 protein (P56817 46-501): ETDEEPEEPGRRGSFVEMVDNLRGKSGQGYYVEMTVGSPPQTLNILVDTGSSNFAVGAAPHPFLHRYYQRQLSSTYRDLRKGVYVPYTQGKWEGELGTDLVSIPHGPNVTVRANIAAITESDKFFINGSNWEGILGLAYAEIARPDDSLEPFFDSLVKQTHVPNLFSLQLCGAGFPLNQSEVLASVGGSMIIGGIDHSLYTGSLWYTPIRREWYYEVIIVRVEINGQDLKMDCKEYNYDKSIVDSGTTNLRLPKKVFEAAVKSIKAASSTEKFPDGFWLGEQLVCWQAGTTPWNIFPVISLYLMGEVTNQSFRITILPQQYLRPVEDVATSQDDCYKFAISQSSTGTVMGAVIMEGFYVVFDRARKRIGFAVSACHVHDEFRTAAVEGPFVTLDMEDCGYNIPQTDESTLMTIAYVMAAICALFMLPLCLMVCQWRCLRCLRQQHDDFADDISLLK

The subject of a further series is Abeta 1-37. The note with it: Beagle dog, single dose 20 mg/kg, at 24 h.
The nature of series [3]: Single dose pharmacology in the Beagle dog, limited safety evaluation. The format is in vivo. The settings on record: single dose 20 mg/kg. Here is the method: as §1, §2

By melting point is commonly meant the temperature, or range, at which the solid turns liquid. As for `C[C@]1(c2cccc(NC(=O)c3ccc(Cl)cn3)c2)N=C(N)CO[C@@H]1F` (single isomer, unassigned) [Compound 86, (R*,R*)—N-[3-(5-amino-2-fluoro-3-methyl-3,6-dihydro-2H-1,4-oxazin-3-yl)phenyl]-5-chloropyridine-2-carboxamide], the melting point is 157.7 °C. For the same compound, the “decrease in Abeta 1-38 in CSF compared to own baseline” value in the series on Abeta 1-38 is more than 90%. The “Aβ42 (% Ctrl)_Mean” value in the series with Aβ42 came to 60 % Ctrl. Besides, the “decrease in Abeta 1-40 in CSF compared to own baseline” value in the series with Abeta 1-40 is more than 90%. Besides, the concentration at 24 h in [1] (CSF, at 24 h, read-out: CSF levels) was found to be 45 ng/mL. For the same compound, the concentration at 24 h in [1] (plasma, up to at least 24 h post dosing, read-out: plasma levels) turned out to be 1440 ng/mL. In addition, in series [1], the clearance entry was “slow clearance”. Also, in the series with Abeta 1-42, the “decrease in Abeta 1-42 in CSF compared to own baseline” value is given as more than 90%. In addition, in series [2], the IC50 was 38.9 nM. For the same compound, the “decrease in Abeta 1-37 in CSF compared to own baseline” value with Abeta 1-37 is 72%. The “clinical abnormalities in behavior” value in series [3] is recorded as “no overt clinical abnormalities in behavior”. Moreover, in [3] (serum up to 10 days after dosing), the “changes in serum parameters (liver enzymes, bilirubin, ...)” value was “No acute or delayed changes in serum parameters”.
